Data from ChEMBL document CHEMBL1201862, “PubChem BioAssay data set” (2004).
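Results reflect a 48-hour exposure of cells in 96-well plates to compound at five concentrations. Abbreviation: GI50, concentration required for 50% inhibition of growth.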 Activity calls are given as the source filed them. No stated cut-off is given here; in the data, active = GI50 up to about 1.1 µM and inactive = higher.

How the values were obtained:
Assay in all cases: growth of human tumour cells (NCI), 48 h
[1] = test system: RXF 631
[2] = test system: KM-20L2
[3] = test system: SNB-78
[4] = test system: HOP-18
[5] = test system: DMS-273
[6] = test system: LXFL 529
[7] = test system: DMS-114
[8] = test system: XF498
[9] = test system: BT-549

| SMILES | GI50 [1] | GI50 [2] | GI50 [3] | GI50 [4] | GI50 [5] | GI50 [6] | GI50 [7] | GI50 [8] | GI50 [9] |
| --- | --- | --- | --- | --- | --- | --- | --- | --- | --- |
| Cc1cc2c(cc1C)[n+]([O-])c(C(=O)/C=C/c1ccccc1Cl)c(C)[n+]2[O-] | 24.7 µM (inactive) | 35.2 µM (inactive) | 33.7 µM (inactive) | 29.3 µM (inactive) | 29.4 µM (inactive) | 18.2 µM (inactive) | 21.8 µM (inactive) | 18.5 µM (inactive) | – |
| O=[N+]([O-])c1ccccc1S(=O)(=O)c1ccccc1 | 18.5 µM (inactive) | > 100 µM (inactive) | – | > 100 µM (inactive) | > 100 µM (inactive) | > 100 µM (inactive) | 64 µM (inactive) | 0.321 µM (active) | – |
| CN(C)C(=S)/N=c1\ssc(=S)n1Cc1ccco1 | 4.69 µM (inactive) | 1.93 µM (inactive) | 3.18 µM (inactive) | 82.2 µM (inactive) | 0.587 µM (active) | 3.48 µM (inactive) | 1.99 µM (inactive) | 4.39 µM (inactive) | 12.2 µM (inactive) |
| COC(=O)CCC(=O)Nc1ccc(Cl)cc1C | > 29.9 µM (inactive) | > 48.4 µM (inactive) | 98.4 µM (inactive) | > 100 µM (inactive) | > 100 µM (inactive) | 32.1 µM (inactive) | 0.859 µM (active) | 13.5 µM (inactive) | – |
| OC(CCNC12CC3CC(CC(C3)C1)C2)c1ccccc1 (configuration not stated) | > 100 µM (inactive) | 49.3 µM (inactive) | > 100 µM (inactive) | > 100 µM (inactive) | 80.4 µM (inactive) | > 100 µM (inactive) | 57.9 µM (inactive) | > 100 µM (inactive) | – |
| CN1C(=O)CCC1(O)C1C=CC=CC1 (configuration not stated) | > 100 µM (inactive) | > 100 µM (inactive) | > 100 µM (inactive) | – | > 100 µM (inactive) | > 100 µM (inactive) | > 100 µM (inactive) | > 100 µM (inactive) | – |
